Assay results from a melting point compilation (Tetko et al.; mined from patent text by program, amines drawn as free bases though some values may be those of a salt).

Compound	melting point
CC(C)c1nn(-c2ccc(C(F)(F)F)cn2)cc1CCCCOS(C)(=O)=O	87 to 89 °C
CN(CCNc1ccn2ncc(-c3cccs3)c2n1)C(=O)OC(C)(C)C	140 to 141 °C
O=C(OCc1ccccc1)N1C=CC(c2cccc(Cl)c2Cl)C=C1	69 to 70 °C
CCCCC(O)CN1CCC2(CC1)CSC1=C(O2)c2ccccc2C(=O)C1=O (centres undefined)	160 to 163 °C
CN1C(=O)C(=CN2CCOCC2)N=C(c2ccccc2Cl)c2cc(F)ccc21	110 to 115 °C
CC(=O)SCC(CCc1cccc(C)c1)C(=O)O (centres undefined)	52 to 54 °C
CC(=O)Nc1cc(N)c(Cl)cc1NC(C)=O	237 °C
N#Cc1ccc2c(c1)C=CCCO2	69 to 71 °C
NC(=O)c1ncn2c1CN=C(c1ccccc1Br)c1cc(F)ccc1-2	298 to 299 °C
CC(C)(C)OC(=O)NCC(CNC(=O)OC(C)(C)C)OS(C)(=O)=O	127 °C
CC12CCC(=O)C=C1C(=O)CC1C2CCC2(C)C(c3cccnc3)=CCC12 (centres undefined)	210 to 212 °C
CCOC(=O)C1=C(N)N=C(OCC)C(C(=O)OCC)C1c1ccccc1 (centres undefined)	119 °C
O=[N+]([O-])c1ccc(C=CS(=O)(=O)N=C(Cl)c2ccccc2)cc1	168 to 175 °C
O=C(O)CCC(=O)Oc1ccc(N(CCCl)CCCl)cc1	98 to 100 °C
O=C(O)CC1(O)CCc2c([nH]c3ccccc23)C1=O (centres undefined)	156 to 157 °C
CCOC(=O)C1=C(C)NC(C)=C(C(=O)OCC)C1c1ccccc1/C=C/C#N	172 to 173 °C
CC(=O)NCCC1CCc2ccn3ncc(C)c3c21 (centres undefined)	121 to 122 °C
CC(NC(=O)OC(C)(C)C)C1CCN(c2c(F)c(N)c3c(=O)[nH]c(=O)n4c3c2OCC4C)C1 (centres undefined)	136 to 138 °C
COc1cccc(CCC(=O)CCCCCC(=O)O)c1	41 to 43 °C
CCCCCCCOc1ccc(C(C)O)cc1 (single isomer, unassigned; (+))	36.7 °C
CC(=O)N(Cc1ccccc1)CC(CCN1CCC(O)(c2ccccc2)CC1)c1ccc(Cl)c(Cl)c1 (centres undefined)	57 to 62 °C

Compound	melting point
OCCSC1=NN(SCCO)CS1	80 °C
C#Cc1cccc(N2C(=O)c3ccc([N+](=O)[O-])cc3C2=O)c1	257 to 259 °C
C=COC(=O)N=c1sc2cc(OC(F)(F)F)ccc2n1CCO	190 °C
CCCCCn1ncc(C#N)c1N	143 to 144 °C
CCCn1cc(C(=O)OCC)c(=O)c2cc(CN3CCOCC3)oc21	195 to 196 °C
NC(=O)N1C(=O)C(C(=O)c2ccccc2)c2ncc(Cl)cc21 (centres undefined)	260 °C
CCc1nc2c(cnn2CC)c(NC2CCOCC2)c1CNC(=O)c1cccc(C(=O)NCc2ccc(OC)c(Br)c2)c1	130 to 132 °C
CCNC(=O)NS(=O)(=O)c1cc2c(cc1OC)OCCC2CNC(=O)c1cc(Cl)ccc1OC (centres undefined)	211 to 213 °C
NS(=O)(=O)c1ccc(C#Cc2cnc3c(C(F)(F)F)cc(-c4ccc(C(F)(F)F)cc4)cn23)cc1	278 to 280 °C
OC(CCc1ccccc1)C(O)CCc1ccccc1 (centres undefined)	128 to 129 °C
CC(=O)NC1CCC2=C(CC1)C(=O)C(CC(=O)O)C=C2 (centres undefined)	198 °C
N=c1nc(Cl)cc(N)n1O	193 °C
C=C(C)C(=O)c1ccc2c(c1)oc(=O)n2C	127 °C
O=[N+]([O-])c1cc(-c2nsc(C(F)(F)F)c2Cl)c(Cl)cc1Cl	104 to 106 °C
N#CC1(N)CCc2cccc(Cl)c2C1 (centres undefined)	67 to 69 °C
O=C1CCC2(c3c[nH]cn3)Cc3ccccc3C12 (centres undefined)	234 to 236 °C
O=c1oc2cc(O)c(O)cc2c2c1CN(CCN1CCOCC1)CC2	299 to 302 °C
N#CCNC(=O)c1ncn2c1CN(C(=O)N1CCCC1)c1ccccc1-2	241 to 242 °C
C[C@@H](CCC(=O)N[C@@H](Cc1ccccc1)C(=O)CSCc1ccco1)CNC(=O)COc1ccccc1	91 to 95 °C
Cc1cc([N+](=O)[O-])ccc1NCCNC(N)=O	186 °C

More lines, now with the values ahead:

melting point	Compound
109 to 111 °C	CCOC(=O)C(=Cc1cccn2cc(-c3cccc(OC)c3)nc12)N=[N+]=[N-]
246 to 249 °C	CCOC(=O)C1=C(C(F)(F)F)COc2ccc3ccccc3c21
208 to 209 °C	CC(C)c1ccc(S(=O)(=O)Nc2ccc(N3CCC(NC(=O)OC(C)(C)C)CC3)nc2)cc1
242 to 243 °C	Cc1nc2c(O)c(CCC(=O)c3ccccc3)c(C(=O)N3CCC3)cc2n1C
139 to 140 °C	Nc1ccc(C(O)c2ccccn2)cc1 (centres undefined)
229 °C	CN1CCOc2cc(S(=O)(=O)n3c(COC(C)(C)C(=O)O)cc4nc(Cl)ccc43)ccc21
40 to 43 °C	CN(C)S(=O)(=O)c1ccc(F)cc1
205 °C	COc1ccccc1NC(=O)Nc1nc(Cl)nc(N(CCC(=O)O)Cc2cccc(C)c2)n1
161 to 162 °C	Cc1cccc(NC(=O)OCCS(C)(=O)=O)c1CNc1cccn2c(C)c(C)nc12
212 °C	Cn1nc(-c2cnc(N)nc2-c2cccc(F)c2)ccc1=O
146 to 148 °C	CCSc1nc2cccc(C(=O)O)c2n1Cc1ccc(-c2ccccc2-c2nc(=O)o[nH]2)cc1
219 to 220 °C	CCCNC(=O)Nc1cc(-c2c(-c3ccc(F)cc3)nc3cccnn23)ccn1
152 to 153 °C	Cc1sc2ncc(C(O)CC(O)c3ccccc3)n2c1C (centres undefined)
183 to 184 °C	CCn1cc(C(=O)NCc2ccc(Cl)cc2)c(=O)c2ccsc21
161 °C	Cc1nc(C(F)(F)F)ccc1C(=O)Nc1ccccc1
217 to 218 °C	O=C(Cc1c(-c2ccccc2)c2cc3c(cc2oc1=O)C=CC3)Nc1ccc(F)cc1C(F)(F)F
141 to 144 °C	COC(=O)/C=C/c1cncc(-c2ccc(C)cc2)c1
130 °C	COc1ccc(CN(C)CCc2ccc(NC(=O)c3cccc(C(=O)c4ccccc4)c3)cc2)cc1OC
179 to 180 °C	CC(c1ccc(-c2ccccc2)c(F)c1)c1csc(NC(=O)C(N)=O)n1 (centres undefined)
178 °C	Cc1c(C(=O)N[C@H](C(=O)O)c2ccc(OCc3ccccc3)cc2)oc2cc(-c3ccc(Cl)cc3)ccc12

melting point	Compound
152 to 154 °C	Cc1ccc(CN2C(=O)[C@@H](NC(=O)Cc3ccccc3)[C@H]2CO)c(C)c1 (relative stereo)
200 to 203 °C	Cc1[nH]c(Cl)c(C)c1-c1ccnc(Nc2ccc(F)cc2)n1
170 to 172 °C	CCN(CC)CCC(=O)C1Nc2cnccc2N(C)n2cccc21 (centres undefined)
195 to 196 °C	CCCCn1cc(N)c(=O)c2cnc(-c3ccncc3)nc21
125 to 126 °C	O=S(=O)(NCCCCOc1ccc(-n2ccnc2)cc1)c1cccc2nonc12
152 to 154 °C	Cn1nc(C(O)c2ccccn2)nc1NCCCOc1cccc(CN2CCCCC2)c1 (centres undefined)
186 °C	CC(C)N1CCN(C(=O)COC2c3ccccc3C(=O)N2c2ccc3ccc(Cl)nc3n2)CC1 (centres undefined)
> 300 °C	Cc1nc(=O)[nH]c2cc(N(C)C)ccc12
179 to 181 °C	COC(=O)c1ccc(Cn2c(=O)c3cc(C(=O)NCc4ccc(OC)cc4)sc3n(C)c2=O)cc1C
225 to 230 °C	O=C(Nc1ccc(C(=O)N2Cc3ccccc3Cc3ccccc32)cc1)c1cccc(Cl)c1Cl
66 to 67 °C	COc1ccc(-c2ccc(C)nc2-c2ccc(OCCN3CCOCC3)cc2)cc1
204 to 206 °C	Fc1ccccc1Cn1cnc2c(Nn3cccc3)ncnc21
117 °C	CN(c1ccccc1)S(=O)(=O)N[C@@H](Cc1ccc(NC(=O)c2c(Cl)cccc2Cl)cc1)C(=O)O
102 to 104 °C	COC(=O)c1ccc(C(CCN(C)C)c2ncc[nH]2)cc1 (centres undefined)
198 °C	O=C1c2cc3ccccc3c(-c3ccccc3)c2C(=O)N1C1CC1
150 to 155 °C	CC(C)(CC(O)(Cn1ccc(=O)c2ccccc21)C(F)(F)F)c1cc(F)ccc1OC(F)F (centres undefined)
253 to 263 °C	C=CC1(F)CN(C2CCCC2)c2nc(Nc3ccc(C(=O)NN4CCN(C)CC4)cc3OC)ncc2N(C)C1=O (centres undefined)
284 to 286 °C	O=C(O)CCc1cc(F)c2ncc(C(=O)NCc3ccc(Cl)cc3)c(O)c2c1
221 °C	Cc1cc(-c2cnn3c(C(F)F)cc(-c4ccc(C(F)(F)F)c(C)c4)nc23)ccn1
286 °C	O=C(CCl)Nc1ccc2c(c1)C(=O)c1cc(NC(=O)CCl)ccc1C2=O

melting point	Compound
115 to 116 °C	Cc1cccc(-n2ccc(=O)c(-c3ccnn3-c3ccccc3)n2)c1
123 to 127 °C	CN1CCC(c2c[nH]c3ccc(NC(=O)c4ccsc4)nc23)CC1
85 to 90 °C	CC(=O)OCCN1CCSc2ccc(Nc3ncc(Cl)c(N[C@@H]4CCCC[C@H]4NS(C)(=O)=O)n3)cc2C1
160 °C	CC(C(=O)NCCN(C)C)c1cccc(C(=O)c2cc3ccsc3s2)c1 (centres undefined)
119 to 120 °C	CS(=O)c1cccc2c3c(n(Cc4ccc(Cl)cc4)c12)C(CC(=O)O)CCC3 (centres undefined)
165 °C	Cc1nnsc1C(=O)NS(=O)(=O)c1ccc(Cl)cc1
243 to 244 °C	Cn1c2ccc(Br)cc2c2sccc(=O)c21
75 to 77 °C	CC(C)(C)C(=O)Oc1ccc(NCC2CCc3ccccc3C2)cc1 (centres undefined)
91 to 94 °C	COc1ccc(CCNCC(O)c2ccccc2C)cc1OC (centres undefined)
195 °C	Cc1c(NC(=O)c2ccc(OCC3CC3)cc2)ccc2cc(CN3CCC(C)(O)CC3)[nH]c12
262 °C	c1ccc(-c2ncc(-c3cnc(-c4ccccn4)[nH]3)cn2)cc1
136 to 138 °C	COc1ccc2cccc(/C(CNC(C)=O)=N/O)c2c1
140 to 142 °C	Cc1c(CO)cc(-c2ccc(S(C)(=O)=O)cc2)n1-c1ccc(F)cc1
147 to 150 °C	O=C(Cn1nc(Cl)nc1Cl)N1CCC(c2nc(C3=NOC(c4c(F)cccc4F)C3)cs2)CC1 (centres undefined)
150 to 152 °C	CCCn1nc2c(N)nc3ccccc3c2c1CCCC1=CCN(Cc2ccccc2)C1
158 °C	OCC1(CO)Nc2cccc3cccc(c23)N1
107 to 108 °C	CC(C)(C)OC(=O)N1CC(CCl)c2c1ccc1ccccc21 (centres undefined)
156 °C	Cc1cc(Cl)cc(C(=O)Nc2ccc(F)cn2)n1
